Laboratory results from PMC7297862, “In Vivo Tumor Growth Inhibition and Antiangiogenic Effect of Cyclic NGR Peptide-Daunorubicin Conjugates Developed for Targeted Drug Delivery” (Pathology Oncology Research, 2019).
Read-outs that look alike come from different tables or passages of the source.

Experiments:
[1] = system: subcutaneous Kaposi's sarcoma bearing SCID mice; experiment: Subcutaneous Kaposi's sarcoma model; format: in vivo, mouse; conditions: KS s.c. model, free Dau 1 mg/kg 5 treatments
Text: (§1) The immunodeficient SCID mice on a C.B.-17 background were bred in specific opportunistic and pathogen free isolator breeding rooms. The breeding isolator was supplied with corn-cob bedding and standard VRF1 rodent chow and with acidified (pH = 3) sterilized distilled water. The mice from the breeding rooms were used for the subcutaneous model of KS and orthotopic model of human colon cancer. They were held in filter-top boxes in the experimental barrier rooms, and every box-opening was performed under a Class 100 laminar-flow hood. The animal housing density was in accordance with the international recommendations. The cage components, corn-cob bedding and food (VRF1 from Special Diet Services) were steam-sterilized in an autoclave (121 °C, 20 min). The animals used in these studies were cared for according to the “Guiding Principles for the Care and Use of Animals” based upon the Helsinki declaration, and they were approved by the local ethical committee. Permission license for breeding and performing experiments with laboratory animals: PEI/001/1738-3/2015 and PEI/001/2574–6/2015.
(§2) Kaposi’s sarcoma (KS) cells were injected into SCID female mice (19-24 g) (s.c.), 3 × 10^6 cells per animal in volume of 200 μL M199 medium per animal. Treatment started 35 days after cell inoculation when average tumor volume was 66 mm^3, by i.p. administration. […] Treatment volume was 0.2 mL/animal. Animal weight and tumor volumes were measured initially when the treatment started and at periodic intervals according to the treatment schedule. A digital caliper was used to measure the longest (a) and the shortest diameter (b) of a given tumor. The tumor volume was calculated using the formula V = ab^2 × π/6, whereby a and b represent the measured parameters (length and width). The experiment was terminated on day 70 after tumor transplantation (day 36 of treatment). The mice from all groups were sacrificed by cervical dislocation. Their primary tumors and livers were harvested and weighed.

[2] = system: orthotopic HT-29 human colon carcinoma bearing SCID mice; experiment: Orthotopic HT-29 human colon tumor model; format: in vivo, mouse; conditions: orthotopic HT-29 model
Text: as §1
HT-29 human colon cancer cells were injected into SCID female mice subcutaneously (s.c.), 3 × 10^6 cells per animal in volume of 200 μL M199 medium per animal, in order to establish tumor for transplantation. After 2 weeks, the mice with palpable tumors were sacrificed by cervical dislocation, and the subcutaneous tumor was dissected out aseptically. Tumor pieces of 2 mm^3 were transplanted orthotopically, under aseptic conditions into anesthetized (narcotic mixture: tiletamine, zolazepam, xylazine, butorphanol) SCID female mice (19-25 g). A small midline incision (0.5 cm) was made and the colorectal part of the intestine was exteriorized. Serosa of the site where the tumor pieces were to be implanted were removed. Tumor tissue fragments of HT-29 human colon tumor were implanted on the top of the animal intestine; an 8/0 surgical (polypropylene) suture was used to suture it on the wall of the intestine. The intestine was returned to the abdominal cavity, and the abdominal wall was closed with 4/0 surgical (polyglycolic acid) sutures. The wound was sterilized and the animals were kept in a sterile environment. On the next day, no sign of pain and/or stress of the mice was observed. The treatments started 6 days after tumor transplantation by i.p. administration of the compounds dissolved in distilled water for injection. 8 mice per group were used.
One group of mice were treated with free Dau (1 mg/kg body weight) on days 6, 13 and 20 after tumor transplantation. Animal groups treated with compounds 1 and 2 were administered with a dose of 10 mg/kg Dau content (33.8 and 33.5 mg/kg of each conjugate, respectively) on days 6, 8, 10, 13, 17, 20 and 24 after tumor transplantation. Control group was treated with sterile water as solvent in 0.2 mL volume per animal. The experiment was terminated on day 27 after tumor transplantation (day 22 of treatment). Daunorubicin treated group was terminated on day 24 after tumor transplantation (day 19 of treatment) due to significant weight loss of the animals. The mice from all groups were sacrificed by cervical dislocation. Their primary tumors and livers were harvested and weighed, while metastases were counted in other organs.

[3] = MTT antiproliferative assay on MRC-5 cells; format: cell-based; conditions: human, MRC-5 cells (normal, non-cancerous human fibroblasts), 72 h continuous treatment, average ± SD
Protocol: (§3) KS (Kaposi’s sarcoma) derived from human Kaposi sarcoma and HT-29 (human colorectal adenocarcinoma) cell line obtained from ATCC were cultured in RPMI 1640 medium with glutamine (Roswell Park Memorial Institute Medium, Lonza, Basel, Switzerland), and MRC-5 (normal fibroblast) cells were cultured in DMEM (Dulbecco’s Modified Eagle’s Medium, Lonza). All media were supplemented with 10% heat-inactivated FBS (Fetal Bovine Serum, Euroclone, Milan, Italy), and with 1% penicillin/streptomycin (Sigma-Aldrich). Cells were cultured in sterile T25 or T75 flasks with ventilation cap (Sarstedt, Nümbrecht, Germany) at 37 °C in a humidified atmosphere with 5% CO2.
(§4) For evaluation of in vitro antiproliferative activity of NGR-Dau conjugates and free Dau, cell viability was determined by MTT assay (3-(4,5-dimethylthiazol-2-yl)-2,5-diphenyl-tetrazolium bromide (Sigma Aldrich)). […] The formazan crystals were dissolved in 100 μL of a 1:1 solution of DMSO (Sigma-Aldrich):EtOH (Molar Chemicals) and the absorbance was measured after 15 min at λ = 570 nm by using a microplate reader (Bio-Rad, model 550, Hercules, CA, USA). The IC50 values of the conjugates and free drug were calculated using GraphPad Prism 6 (GraphPad Software, San Diego, CA, USA). […]

[4] = system: orthotopic HT-29 human colon primary tumor; experiment: Proliferation index (KI-67) in HT-29 primary tumor; format: in vivo, mouse
Protocol: (§5) HT-29 human colon cancer cells were injected into SCID female mice subcutaneously (s.c.), 3 × 10^6 cells per animal in volume of 200 μL M199 medium per animal, in order to establish tumor for transplantation. After 2 weeks, the mice with palpable tumors were sacrificed by cervical dislocation, and the subcutaneous tumor was dissected out aseptically. Tumor pieces of 2 mm^3 were transplanted orthotopically, under aseptic conditions into anesthetized (narcotic mixture: tiletamine, zolazepam, xylazine, butorphanol) SCID female mice (19-25 g). A small midline incision (0.5 cm) was made and the colorectal part of the intestine was exteriorized. Serosa of the site where the tumor pieces were to be implanted were removed. […]
(§6) One group of mice were treated with free Dau (1 mg/kg body weight) on days 6, 13 and 20 after tumor transplantation. […] Their primary tumors and livers were harvested and weighed, while metastases were counted in other organs.
(§7) The routinely formalin-fixed tumors were dehydrated in a graded series of ethanol, infiltrated with xylene and embedded into paraffin at a temperature not exceeding 60 °C. […] The KI-67-positive tumor cells were counted manually per fields of vision under light microscope (400-fold magnification), and 3 fields of view per tumor were evaluated. Proliferation index was calculated as percentage of KI-67 positive cells from all cells in the field of view. […]

[5] = system: orthotopic HT-29 human colon primary tumor; experiment: Vascularization (CD31 blood vessel density) in HT-29 primary tumor; format: in vivo, mouse; conditions: percentage printed in Fig. 7d
Protocol: as §5, §6, §7

[6] = system: subcutaneous Kaposi's sarcoma primary tumor; experiment: Proliferation index (KI-67) in KS primary tumor; format: in vivo, mouse; conditions: percentage printed in Fig. 7a
Protocol: as §2, with “The experiment was terminated on day 70 after tumor transplantation (day 36 of treatment). The mice from all groups were sacrificed by cervical dislocation. Their primary tumors and livers were harvested and weighed.” left out
(§8) The routinely formalin-fixed tumors were dehydrated in a graded series of ethanol, infiltrated with xylene and embedded into paraffin at a temperature not exceeding 60 °C. […] The KI-67-positive tumor cells were counted manually per fields of vision under light microscope (400-fold magnification), and 3 fields of view per tumor were evaluated. Proliferation index was calculated as percentage of KI-67 positive cells from all cells in the field of view. The CD31-positive blood vessels were counted manually using light microscope (200-fold magnification), whereby 3 fields of view per tumor were evaluated, and blood vessel density was calculated as number of blood vessels per mm^2.

[7] = system: subcutaneous Kaposi's sarcoma primary tumor; experiment: Vascularization (CD31 blood vessel density) in KS primary tumor; format: in vivo, mouse; conditions: percentage printed in Fig. 7c
Protocol: as §2, with “The experiment was terminated on day 70 after tumor transplantation (day 36 of treatment). The mice from all groups were sacrificed by cervical dislocation. Their primary tumors and livers were harvested and weighed.” left out
as §8

[8] = system: CD13(−) HT-29 human colorectal adenocarcinoma cells; experiment: MTT antiproliferative assay on HT-29 cells; format: cell-based; conditions: average ± SD
Protocol: as §3, §4

[9] = system: CD13(+) Kaposi's sarcoma cells (KS); experiment: MTT antiproliferative assay on KS cells; format: cell-based; conditions: Homo sapiens, 24 h treatment followed by 48 h incubation in drug free medium, average ± SD
Protocol: as §3, §4

For `COc1cccc2c1C(=O)c1c(O)c3c(c(O)c1C2=O)C[C@@](O)(C(C)=O)C[C@@H]3O[C@H]1C[C@H](N)[C@H](O)[C@H](C)O1` [Dau, daunorubicin], which “decrease of animal body weight at end of experiment” value ([1]; conjugates 10 mg/kg Dau content i.p. 11 treatments, day 70 after cell inoculation, 5 animals per group) is on record?
Its value is 16.7%.

And the “inhibition of tumor volume compared to control” value ([1]; conjugates 10 mg/kg Dau content i.p. 11 treatments, end of experiment (day 70))?
The value was 18.6%.

And the “decrease of liver/body weight ratio in comparison to control” value ([1]; day 70, p < 0.05)?
The value was 12.3%.

And the “inhibition of tumor weight compared to control” value ([2]; conjugates 10 mg/kg Dau content 7 treatments (day 27), free Dau 1 mg/kg 3 treatments (day 24))?
The value was 67.7%.

And the “animal body weight during treatment” value ([2]; conjugates 10 mg/kg Dau content i.p. 7 treatments, free Dau 1 mg/kg 3 treatments, days after tumor transplantation, 8 animals per group)?
Its value is “significantly decreased body weight from day 17”.

And the “liver/body weight ratio, percentage of control” value ([2]; conjugates day 27, Dau day 24)?
Its value is 85.5%.

And the “animals with metastases near the primary tumor, out of 8 animals” value ([2]; control 7 out of 8)?
The value was 1.

What about the “decrease of liver/body weight ratio in comparison to control” value ([2]; free Dau 1 mg/kg 3 treatments, p < 0.05) of the same compound?
Its value is 14.5%.

And the “inhibition of weight of metastases in comparison to control” value ([2]; metastases near the primary tumor)?
Its value is 78.3%.

And the “tumor weight, percentage of control” value ([2]; percentage printed in Fig. 6b, conjugates day 27, Dau day 24)?
Its value is 32.3%.

What about the “weight of metastases, percentage of control” value ([2]; percentage printed in Fig. 6d) of the same compound?
The value was 21.7%.

And the IC50 at 72 h [3]?
Its IC50 at 72 h is 0.25 ± 0.06 µM.

What about the “proliferation index, percentage of control” value ([4]; percentage printed in Fig. 7b) of the same compound?
The value was 88.8%.

And the “inhibition of proliferation (KI-67 proliferation index) compared to control” value ([4]; significant)?
The value was 11.2%.

And the “blood vessel density, percentage of control” value [5]?
The value was 62.0%.

And the “proliferation index, percentage of control” value [6]?
The value was 98.2%.

What about the “blood vessel density, percentage of control” value [7] of the same compound?
The value was 81.4%.

What about the IC50 ([8]; 24 h treatment followed by 48 h incubation in drug free medium, read-out: HT-29 (24 h) IC50) of the same compound?
Its IC50 is 0.09 ± 0.01 µM.

What about the IC50 ([8]; 72 h continuous treatment, read-out: HT-29 (72 h) IC50) of the same compound?
Its IC50 is 0.1 ± 0.01 µM.

What about the IC50 [9] of the same compound?
Its IC50 is 0.1 ± 0.01 µM.
